{"source": "patent US20170333390A1", "about": "“PHYTOCHEMICAL COMPOSITIONS INCLUDING SESAMIN FOR ANTI-INFLAMMATORY, ANTI-CYTOKINE STORM, AND OTHER USES” (CHIANG MAI UNIVERSITY, priority 2009, published 2017)", "key": {"[1]": {"test_system": "cartilage tissue cultures exposed to IL-1 (ECM degradation, HA release)", "experiment": "HA release from IL-1 exposed cartilage tissue cultures (ELISA)", "type": "cell-based", "conditions": "relative to control culture", "procedure": "Experiments were conducted to evaluate the anti-inflammatory effects of combinations of particular phytochemical compositions provided by the present disclosure with known substances, compositions, or drugs that are associated with an anti-inflammatory effect and/or an anti-degenerative or tissue integrity preservation effect in connective tissue. In the context of the present disclosure, the term “connective tissue” encompasses connective tissue proper (e.g., dense or fibrous connective tissue), as well as specialized connective tissue such as cartilage or bone. More specifically, experiments were conducted to evaluate the anti-inflammatory, anti-degenerative, and/or structural preservation effects of a combination of particular phytochemical compositions provided by the present disclosure with glucosamine sulfate. In addition, the experiments compared the anti-inflammatory/anti-degenerative effects of the combination of particular sesamin or sesamin-based phytochemical compositions provided by the present disclosure plus glucosamine sulfate, versus the anti-inflammatory/anti-degenerative effects of glucosamine sulfate alone.\nHyaluronic acid (HA) is an important component of the extracellular matrix (ECM), as well as a major component of synovial fluid. HA is present in articular cartilage, and contributes to cartilage resilience. It is known that IL-1 stimulates the synthesis and activity of matrix metalloproteinases and other enzymes that are associated with cartilage degradation as well as rheumatoid arthritis and osteoarthritis. A set of experimental cartilage tissue cultures were prepared using cartilage tissue samples containing HA within their ECMs. As further detailed below, the experimental cartilage tissue cultures selectively incorporated glucosamine sulfate alone; sesamin alone; or a combination of glucosamine sulfate and sesamin. Additionally, a control cartilage tissue culture remained unexposed to either of sesamin or glucosamine sulfate.\nECM degradation was induced in the experimental and control cartilage tissue cultures by exposing the cultures to IL-1. A measure or estimate of a cartilage tissue anti-degenerative effect was defined in accordance with an amount of HA that an experimental cartilage tissue culture released into the tissue culture medium relative to a reference or baseline amount of HA that was released into the tissue culture medium by the control cartilage tissue culture. More particularly, a percentage reduction in the amount of HA released into the tissue culture medium by a given experimental cartilage tissue culture relative to the amount of HA released into the tissue culture medium by the control cartilage tissue culture, indicated below as “Percentage (%) HA Reduction”, conveys or indicates the magnitude of an anti-degenerative or structural preservation effect provided by the experimental cartilage tissue culture under consideration. A corresponding measure or estimate of percentage (%) HA retention by cartilage tissue can also be defined based upon the experimental results. The amount or level of HA present in a given tissue culture medium was detected using ELISA, in a manner that can be understood by one of ordinary skill in the art."}, "[2]": {"test_system": "IL-1 released by LPS induced peripheral blood mononuclear cells (PBMCs)", "experiment": "Quantity of IL-1 released by LPS induced PBMCs (ELISA)", "type": "cell-based", "conditions": "LPS 20 ng/ml", "procedure": "Experiments were conducted to evaluate the effect of particular phytochemical compositions provided by the present disclosure on quantity of IL-1 released by specified cells found within a body of a living organism. Cells used for the experiment described in this example are LPS induced peripheral blood mononuclear cells (PBMCs). It is understood by a person of ordinary skill in the art that the PBMCs may be substituted for other immune cells found within the body. It is also understood by a person having ordinary skill in the art that other inducing substances or chemicals besides LPS, for example viral antigens, may also be used for inducing the PBMCs.\nTo conduct the experiments of example two, PBMCs were isolated and prepared using isolation techniques or methods known to a person of ordinary skill in the art. An exemplary method or technique is the differential density gradient centrifugation technique, the steps or process steps of which are known to a person of ordinary skill in the art. In addition, LPS can be obtained from a commercial source, for example Sigma-Aldrich Co.\nThe PBMCs are cultured in 10% fetal calf serum in RPMI1640 medium. Seven cultures of PBMCs, i.e. culture 1 to culture 7, were prepared. The contents of each of cultures 1 to 7 are as follows: • (i) Culture 1: First control culture. Includes a predetermined volume of PBMCs (1×10^5 PBMCs/culture); • (ii) Culture 2: Second control culture. […]\nAfter a predetermined time period, quantity of IL-1 in each of cultures 1 to 7 was quantified using the ELISA technique (e.g., Biotrak Easy ELISA Aersham). The quantity of IL-1 detected by the ELISA technique in each of cultures 1 to 7 reflects the quantity of IL-1 released by the PBMCs of that culture."}}, "data": [{"smiles": "c1cc2c(cc1[C@H]1OC[C@H]3[C@@H]1CO[C@@H]3c1ccc3c(c1)OCO3)OCO2", "note": "[sesamin]", "values": [{"measurement": "Percentage (%) HA Reduction", "setting": "[1]; sesamin 0.25 uM (88.6 ug/ml)", "value": "approximately 0%"}, {"measurement": "Percentage (%) HA Reduction", "setting": "[1]; sesamin 0.25 uM (88.6 ug/ml), listed as Sesamin", "value": 0, "unit": "%"}, {"measurement": "Percentage (%) HA Reduction", "setting": "[1]; sesamin 0.50 uM (177.2 ug/ml)", "value": "approximately 4%"}, {"measurement": "Percentage (%) HA Reduction", "setting": "[1]; sesamin 0.50 uM (177.2 ug/ml), listed as Sesamin", "value": 4, "unit": "%"}, {"measurement": "Percentage (%) HA Reduction", "setting": "[1]; sesamin 1.00 uM", "value": "approximately 43%"}, {"measurement": "Percentage (%) HA Reduction", "setting": "[1]; sesamin 1.00 uM, listed as Sesamin", "value": 56, "unit": "%"}, {"measurement": "decrease in quantity of IL-1", "setting": "[2]; 0.1 uM sesamin (culture 3), compared to control culture 1, 24 hours", "value": "approximately 5%"}, {"measurement": "decrease in quantity of IL-1", "setting": "[2]; 0.5 uM sesamin (culture 4), compared to control culture 1, 24 hours", "value": "approximately 5%"}, {"measurement": "decrease in quantity of IL-1", "setting": "[2]; 10 uM sesamin (culture 7), compared to control culture 2, 24 hours", "value": "approximately 35%"}]}]}
